Tests used:
Bacillus megaterium = conditions: ref Wang et al., 2023; cited from earlier work
Description: (§1) Recent studies have shown that epilancin 15X activity varies depending on the indicator strain, with bacteriostatic activity against Staphylococcus simulans and Micrococcus flavus but bactericidal activity against Bacillus megaterium ([Wang et al., 2023]).

Staphylococcus simulans = conditions: ref Wang et al., 2023; cited from earlier work
Description: as §1

Micrococcus flavus = conditions: ref Wang et al., 2023; cited from earlier work
Description: as §1

S. carnosus TM300 [1] = assay: Agar diffusion bioactivity assay with lipids in flanking wells; type: cell-based, Staphylococcus carnosus; conditions: S. carnosus TM300 on BHI agar, overnight
Description: For agar diffusion antimicrobial activity assays, the autoclaved 1.5% agar was prepared in the appropriate medium and cooled in a 40°C water bath for 15 min. A total of 50 μL overnight culture of the sensitive strain was added to the agar and kept in the water bath. A total of 25 mL seeded agar was poured into a sterile OmniTray (Nunc) and allowed to solidify at room temperature for 30 min. An additional 35 mL of seeded agar was poured over the lower solidified agar layer. A sterile 96-well PCR plate was placed in the molten agar upper layer, and the agar was allowed to solidify at 25°C for 30 min. After sufficient solidification, the 96-well PCR plate was removed. Then 20 μL volume of each peptide was dispensed into the wells. Plates were left at 25°C for 30 min until the wells were dried, and the plates were incubated at 37°C overnight. The antibacterial activity was determined by the presence or absence of growth inhibition.
Figure S5. (A) Zones of growt h inhibition of epilancin 15X a nd nisin A against S. carnosus TM30 0 grown on BHI agar plates. The indicated amounts of antibiotics were placed in the well shown in the center of the zone of inhibition. […]

[2] = test system: B. subtilis BSF2470 (1A980); assay: Killing kinetics (CFU counting); type: cell-based, Bacillus subtilis
Description: (§2) S. carnosus TM300 and B. subtilis BSF2470 (1A980) cell cultures were grown to mid-log phase in BHI and LB broth, respectively. […] At each time point, an aliquot of […] treated-culture was serial-diluted and placed on BHI agar plates for S. carnosus and LB agar plates for B. subtilis. The plates were grown for 1 day at 37°C and the colonies were counted. Each experiment was performed in triplicate and untreated cell culture was used as the negative control.

[3] = test system: RNA biosynthesis in S. carnosus TM300; assay: Macromolecular synthesis assay: 3H-uridine incorporation into RNA; type: cell-based, Staphylococcus carnosus; conditions: S. carnosus TM300, 2× MIC, three independent experiments
Description: Radiolabel incorporation experiments were carried out similarly as previously described but using S. carnosus ([Wu et al., 2019]). The OD600 of parallel nonradioactive cultures was measured at each time point to normalize the measured radioactivity and minimize effects due to cell death and growth inhibition. The radiolabeled reagents and their corresponding positive and negative antibiotic controls were as follows. […] All experiments were conducted independently three times.
Figure S3. Thre e in de pen den t ex perime nts of incorporation of (A) 14C- acetic acid into fatty acids, (B) 14C- thymi din e into D NA, (C) 3H-uridi ne into RNA, (D) 14C- lab el ed ami no acids into protei n, and (E) 14C- label ed GlcNAc into cell w all in S. carnosus TM300 cells treated with vario u s antimicro bia l agents. T he p ercent i nco rpo ratio n at 0 min was measured after incubati ng the cel l cultur e with 0.8 μCi/mL radioactive precursors for 15 min. Then 0.5x, 1x, 2x, or 4x MIC epilanci n 15X and 2x MIC controls were added to the cell cultur e (t=0), and t he percent incorporation was measur ed ov er time. Positive controls a re gr een and negative controls are black (cells o nly) an d blu e (co mpo und w ith mo d e o f actio n unr elate d to th e a ssay i n que stio n). […]

S. carnosus TM300 [4] = assay: Lipid protection assay (MIC with lipid-supplemented growth medium); type: cell-based, Staphylococcus carnosus; conditions: for Epilancin MIC: S. carnosus TM300
Description: MIC determination was performed in a 96-well microtiter plate as described previously ([Wu et al., 2019]). Sensitive bacterial culture was grown in the appropriate medium (BHI for S. carnosus; LB for B. subtilis) at 37°C overnight. The culture was diluted to 10^5 CFU/mL in medium in each well. Epilancin 15X or its analog was dissolved in water and serially diluted to obtain final concentrations of 20, 10, 5, 2.5, 1.25, 0.625, 0.3125, 0.156, 0.078, 0.039, 0.019, and 0.009 μM. OD600 readings were obtained after 18 h using a Synergy H4 Hybrid Multi-Mode Microplate Reader (BioTeK). Cell-free untreated medium, and untreated cell culture were used as negative controls. The MIC of nisin against B. subtilis BSF2470 was determined following the same methods.
The possibility of direct interaction between epilancin 15X and specific lipids was examined through lipid protection assays. […] In an agar diffusion assay, purified S. aureus LTA antagonized the bioactivity of epilancin 15X but not nisin A (Supplementary Figure S5A).

S. carnosus TM300 [5] = assay: Killing kinetics (CFU counting); type: cell-based, Staphylococcus carnosus; conditions: S. carnosus TM300, mid-log, 1x and 4x MIC, 30-180 min, triplicate
Description: as §2

[6] = test system: fatty acid biosynthesis in S. carnosus TM300; type: cell-based, Staphylococcus carnosus; conditions: S. carnosus TM300, 2× MIC, normalized to OD600, three independent experiments
Description: Thre e in de pen den t ex perime nts of incorporation of (A) 14C- acetic acid into fatty acids, (B) 14C- thymi din e into D NA, (C) 3H-uridi ne into RNA, (D) 14C- lab el ed ami no acids into protei n, and (E) 14C- label ed GlcNAc into cell w all in S. carnosus TM300 cells treated with vario u s antimicro bia l agents. T he p ercent i nco rpo ratio n at 0 min was measured after incubati ng the cel l cultur e with 0.8 μCi/mL radioactive precursors for 15 min. […] Positive controls a re gr een and negative controls are black (cells o nly) an d blu e (co mpo und w ith mo d e o f actio n unr elate d to th e a ssay i n que stio n). T he ra dio activity o f each a nti bio tic - treated cultur e was normalized based on it s OD600 at each time point compared to th e unt reate d ce ll cultur e.

[7] = B. subtilis LTA (-) added, ~100 µM
[8] = S. aureus LTA (-) added, ~100 µM

For Epilancin 15X, the “type of antimicrobial activity” value (Bacillus megaterium) is given as “bactericidal”, the “type of antimicrobial activity” value (Staphylococcus simulans) is given as “bacteriostatic” and the “type of antimicrobial activity” value (Micrococcus flavus) is given as “bacteriostatic”. For the same substance, the “antagonism of bioactivity (zone of growth inhibition) by purified S. aureus LTA” value (S. carnosus TM300 [1]) was “antagonized”, the “growth (colonies) after treatment” value ([2]; B. subtilis BSF2470, 4x MIC, 90 and 120 minutes, at the dilution factor plated) was “no growth was observed” and the “number of colony forming units (CFU)” value ([2]; B. subtilis BSF2470, mid-log, 1x and 4x MIC, 30-180 min, triplicate) was “significant decrease”. The “RNA biosynthesis (3H-uridine incorporation)” value [3] was “considerably stronger effect than that observed with the respective negative controls”, the “Increase in MIC compared to WT” value (S. carnosus TM300 [4]; [7]) was 8 X and the “Increase in MIC compared to WT” value (S. carnosus TM300 [4]; Cardiolipin (-) added, 130 µM) was 8 X. The “Increase in MIC compared to WT” value (S. carnosus TM300 [4]; DGDG added, 100 µM) was “did not display any protection affect”, the “Increase in MIC compared to WT” value (S. carnosus TM300 [4]; POPC added, 130 µM) was “did not display any protection affect” and the “Increase in MIC compared to WT” value (S. carnosus TM300 [4]; POPE added, 500 µM) was “did not display any protection affect”. For the same substance, the “Increase in MIC compared to WT” value (S. carnosus TM300 [4]; POPG (-) added, 100 µM) was 4 X, the “Increase in MIC compared to WT” value (S. carnosus TM300 [4]; [8]) was greater than 16 X and the “Epilancin MIC” value (S. carnosus TM300 [4]; [7]) was 2.5 µM. For the same substance, the “Epilancin MIC” value (S. carnosus TM300 [4]; Cardiolipin (-) added, 130 µM) was 2.5 µM, the “Epilancin MIC” value (S. carnosus TM300 [4]; DGDG added, 100 µM) was 0.31 µM and the “Epilancin MIC” value (S. carnosus TM300 [4]; POPC added, 130 µM) was 0.31 µM. For the same substance, the “Epilancin MIC” value (S. carnosus TM300 [4]; POPE added, 500 µM) was 0.31 µM, the “Epilancin MIC” value (S. carnosus TM300 [4]; POPG (-) added, final concentration 100 µM) was 1.25 µM and the “Epilancin MIC” value (S. carnosus TM300 [4]; [8]) was greater than 5 µM. For the same substance, the “increase of epilancin 15X MIC” value (S. carnosus TM300 [4]; growth medium supplemented with 2.5 μM LTA isolated from S. aureus) was “at least 8 fold”, the “increase of epilancin 15X MIC” value (S. carnosus TM300 [4]; growth medium supplemented with POPG) was “at least 4 fold” and the “increase of epilancin 15X MIC” value (S. carnosus TM300 [4]; growth medium supplemented with cardiolipin) was “at least 4 fold”. The “number of colony forming units (CFU)” value (S. carnosus TM300 [5]) was “significant decrease” and the “fatty acid biosynthesis (14C-acetic acid incorporation)” value [6] was “decrease”.
